Patent US20130288980A1, “TARGETING SENESCENT AND CANCER CELLS FOR SELECTIVE KILLING BY INTERFERENCE WITH FOXO4” (Buck Institute for Research on Aging, priority 2012, published 2013)
“Also recorded” adds a separate entry of the source.

Legend:
FOXO4 = FOXO4 knockdown by lentiviral short hairpins: FOXO4 mRNA (QPCR) and punctate FOXO4 staining after 10Gy XRAY; format: cell-based, human; conditions: HCA2 fibroblasts, 8 days after 10Gy XRAY
Method: FIG. 1A: 3×10^6 Normal Human IMR90 fibroblasts were plated in 6 cm dishes and the next day exposed to 10Gy ionizing radiation (XRAY) or left untreated. At the indicated time-points protein samples were prepared by collecting the cells in 1× Laemli Sample buffer. The indicated proteins were detected by western blot using antibodies against FOXO4 (#9472, Cell Signaling), FOXO3a (#07-702, Upstate/Millipore) and Tubulin (B-5-1-2, Sigma-Aldrich). FIG. 1B: 10^4 Normal human HCA2 fibroblasts were plated in 96-well plates in triplicate per condition and the next day exposed to 10Gy ionizing radiation (XRAY) or left untreated. At the indicated time-points mRNA and subsequent cDNA samples were collected using the Cells-to-Ct kit from Ambion according to the manufacturer's instructions. Real-time QPCR was subsequently performed using the Universal Probe Library system from Roche with the following primers/probe combinations: For FOXO4: Probe 18, FOXO4-fwd: 5′-[…]-3′, FOXO4-Rev: 5′-[…]-3′. For Tubulin: Probe 58, Tubulin-Fwd: 5′-[…]-3′ and Tubulin-Rev 5′-[…]-3′. Changes in mRNA expression were calculated using the ΔΔCT method. FIG. 1C: 2×10^5 IMR90 fibroblasts were plated on glass coverslips and the next day exposed to 10Gy ionizing radiation (XRAY) or left untreated. […]

A375 melanoma cells = assay: A375-shGFP versus A375-shFOXO4 sensitivity to chemotherapeutic agents (MTS); format: cell-based, human
Method: FIG. 12A: 2×10^4 A375-shGFP or A375-shFOXO4-2 cells were plated in triplicate in 96-well plate chambers. The next day the cells were incubated with the indicated concentrations of PLX4032 or left untreated. After 6 days the a CellTiter 96® AQueous One Solution Cell Proliferation Assay (MTS) was performed according to the manufacturer's instructions (Promega) to determine the relative number of cells versus Mock treated A375-shGFP or A375-shFOXO4-2 melanoma cells (Left panel). Additionally, in a separate experiment the cells were refreshed at day 7 with the same dose of PLX4032 and left for another 4 days after which the same procedure was performed. FIG. 12B: Similar experiment as in A), except with the general RAF inhibitor RAF265. FIG. 12C: Similar experiment as in A), except with the MEK inhibitor AZD6244.

[1] = test system: BRAFV600E-mutated A375 malignant melanoma cells; assay: Cytochrome C release in shFOXO4-infected A375 cells treated with PLX4032; format: cell-based, human; conditions: shFOXO4 versus control hairpin; PLX4032 0.5, 2 and 10 μM
Method: FIG. 9B: BRAF^V600E-mutated A375 malignant melanoma cells were infected as in FIG. 2a and selected for 3 days with 1 μg/ml Puromycin. Subsequently 2×10^4 cells were plated in triplicate on glass coverslips in 24-well plate chambers. The next day the cells were incubated with the indicated concentrations of the BRAF^V600E-inhibitor PLX4032 in the presence of 20 μM of the general caspase-inhibitor Q-VD-OPH. After 5 days the cells were processed as in FIG. 2b for Cytochrome C staining and the percentage of cells with Cytochrome C release was quantified.

[2] = test system: BRAFV600E-driven melanoma cells such as A375; conditions: Sala et al. 2008; cited from earlier work
metastatic melanoma = conditions: patients with metastatic melanoma; Bollag 2010, Sosman 2012; cited from earlier work

| Compound | knockdown of FOXO4 mRNA and reduction in punctate FOXO4 staining (FOXO4) | sensitivity of A375-shFOXO4 compared with A375-shGFP cells to the drug (A375 melanoma cells) | other results |
| --- | --- | --- | --- |
| 5′-CCAGCTTCAGTCAGCAGTTAT-3′ [shFOXO4-1] | induce knockdown of FOXO4 mRNA and reduction in punctate FOXO4 |  |  |
| 5′-CGTCCACGAAGCAGTTCAAAT-3′ [shFOXO4-2] | induce knockdown of FOXO4 mRNA and reduction in punctate FOXO4 |  |  |
| Cn1cnc2c(F)c(Nc3ccc(Br)cc3Cl)c(C(=O)NOCCO)cc21 [AZD6244] |  | more sensitive |  |
| N.N.[Cl][Pt][Cl] [Cisplatin] |  | more sensitive |  |
| CCCS(=O)(=O)Nc1ccc(F)c(C(=O)c2c[nH]c3ncc(-c4ccc(Cl)cc4)cc23)c1F [PLX4032] |  | more sensitive | sensitivity to PLX4032 on FOXO4 knockdown (Cytochrome C release) [1]: strongly sensitized; also recorded: Increased sensitivity; apoptosis [2]: trigger apoptosis; tumor-free survival rates (metastatic melanoma): Major improvements in tumor-free survival rates |
| Cn1c(Nc2ccc(C(F)(F)F)cc2)nc2cc(Oc3ccnc(-c4ncc(C(F)(F)F)[nH]4)c3)ccc21 [RAF265] |  | more sensitive |  |
